In US20260015360A1 (MOMA Therapeutics, Inc., priority 2023, published 2026):

Columns and labels:
[1] = molecular target: T1, biotinylated Avi-POLΘ[2-894] (Homo sapiens, UniProt O75417); experiment: ATPase assay (ADP-Glo): POLΘ-mediated ATP hydrolysis; settings: read-out: Biochemical ATPase ADPGlo IC50
T1 construct: 1 nM biotinylated Avi-POLΘ[2-894]

[2] = test system: DLD1 WT cells; experiment: DLD1 viability assay (CellTiter-Glo, 7 days), DLD1 WT; assay type: cell-based; settings: Homo sapiens, DLD-1, 168 h
[3] = test system: DLD1 BRCA2 (−/−) cells; experiment: DLD1 viability assay (CellTiter-Glo, 7 days), DLD1 BRCA2 (−/−); assay type: cell-based; settings: Homo sapiens, DLD-1, 168 h, read-out: Viability IC50 (μM) DLD1 BRCA2 null

T1 sequence (O75417 2-894 limits assumed): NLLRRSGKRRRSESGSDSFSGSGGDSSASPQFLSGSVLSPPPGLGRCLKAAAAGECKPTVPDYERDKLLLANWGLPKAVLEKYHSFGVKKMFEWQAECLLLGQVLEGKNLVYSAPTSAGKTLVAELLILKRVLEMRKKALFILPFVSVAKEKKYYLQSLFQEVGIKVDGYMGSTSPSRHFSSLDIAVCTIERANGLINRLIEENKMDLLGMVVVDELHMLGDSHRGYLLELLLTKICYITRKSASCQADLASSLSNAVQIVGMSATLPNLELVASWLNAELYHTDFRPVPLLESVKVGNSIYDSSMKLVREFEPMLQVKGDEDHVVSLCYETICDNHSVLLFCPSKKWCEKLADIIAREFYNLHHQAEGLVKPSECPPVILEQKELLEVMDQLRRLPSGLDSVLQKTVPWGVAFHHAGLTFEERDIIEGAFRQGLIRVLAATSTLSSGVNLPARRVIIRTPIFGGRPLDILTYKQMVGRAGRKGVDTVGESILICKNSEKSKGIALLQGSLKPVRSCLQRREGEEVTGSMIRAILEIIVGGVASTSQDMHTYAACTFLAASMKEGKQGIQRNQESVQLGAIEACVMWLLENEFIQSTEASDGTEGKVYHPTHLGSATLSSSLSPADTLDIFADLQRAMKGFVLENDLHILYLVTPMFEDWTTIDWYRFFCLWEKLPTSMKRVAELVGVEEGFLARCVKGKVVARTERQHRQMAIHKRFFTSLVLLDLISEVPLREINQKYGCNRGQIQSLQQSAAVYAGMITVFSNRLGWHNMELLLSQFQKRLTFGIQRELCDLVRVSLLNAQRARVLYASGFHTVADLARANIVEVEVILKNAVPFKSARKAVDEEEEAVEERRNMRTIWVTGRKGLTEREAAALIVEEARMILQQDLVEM

SMILES	IC50 [1] [nM]	IC50 [2] [µM]	IC50 [3] [µM]
COc1cnc(Cl)cc1-c1cc(C)ncc1C(=O)Nc1nn2cc(C3CCC(CO)C3)nc2s1 (racemic) [Example 270]	15 to 50	–	–
COc1cnc(Cl)cc1-c1cc(C)ncc1C(=O)Nc1nc2ncc(N3CCO[C@H](C)[C@H]3C)nc2s1 (single isomer, unassigned) [Example 402, 2′-chloro-N-(6-((2R or S,3R or S)-2,3-dimethylmorpholino)thiazolo [4,5-b]pyrazin-2-yl)-5′-methoxy-6-methyl-[4,4′-bipyridine]-3-carboxamide]	1 to 15	–	–
COc1cnc(Cl)cc1-c1cc(C)ncc1C(=O)Nc1nc2ncc(N3CCO[C@@H](C)[C@H]3C)nc2s1 (single isomer, unassigned) [Example 408, 2′-chloro-N-(6-((2S or R,3R or S)-2,3-dimethylmorpholino)thiazolo [4,5-b]pyrazin-2-yl)-5′-methoxy-6-methyl-[4,4′-bipyridine]-3-carboxamide]	1 to 15	–	–
COc1cnc(Cl)cc1-c1cc(C)ncc1C(=O)Nc1nc2ncc(N3CCO[C@@H](C)[C@@H]3C)nc2s1 (single isomer, unassigned) [Example 415, 2′-chloro-N-(6-((2S or R,3S or R)-2,3-dimethylmorpholino)thiazolo [4,5-b]pyrazin-2-yl)-5′-methoxy-6-methyl-[4,4′-bipyridine]-3-carboxamide]	15 to 50	–	–
COc1cnc(Cl)cc1-c1cc(C)ncc1C(=O)Nc1nc2ncc(C3CCOC3)nc2s1 (single isomer, unassigned) [Example 473, (R or S)-2′-chloro-5′-methoxy-6-methyl-N-(6-(tetrahydrofuran-3-yl)thiazolo[4,5-b]pyrazin-2-yl)-[4,4′-bipyridine]-3-carboxamide]	15 to 50	–	–
COc1cnc(Cl)cc1-c1cc(C)ncc1C(=O)Nc1nc2ncc(C3CCOC3)nc2s1 (single isomer, unassigned) [Example 479, (S or R)-2′-chloro-5′-methoxy-6-methyl-N-(6-(tetrahydrofuran-3-yl)thiazolo[4,5-b]pyrazin-2-yl)-[4,4′-bipyridine]-3-carboxamide]	1 to 15	–	–
COc1cnc(Cl)cc1-c1cc(C)ncc1C(=O)Nc1nn2cc(C(=O)N[C@H]3C[C@](O)(C(F)(F)F)C3)nc2s1 [Example 32, 2-(2′-chloro-5′-methoxy-6-methyl-[4,4′-bipyridine]-3-carboxamido)-N-((1s,3s)-3-hydroxy-3-(trifluoromethyl)cyclobutyl)imidazo[2,1-b][1,3,4]thiadiazole-6-carboxamide]	> 900	–	–
COc1cnc(Cl)cc1-c1cc(C)ncc1C(=O)Nc1nn2cc(C(=O)N3CC[C@H](O)C3)nc2s1 [Example 36, (S)-2′-chloro-N-(6-(3-hydroxypyrrolidine-1-carbonyl)imidazo[2,1-b][1,3,4]thiadiazol-2-y1)-5′-methoxy-6-methyl-[4,4′-bipyridine]-3-carboxamide]	15 to 50	–	–
COc1ccccc1-c1cc(C)ncc1C(=O)Nc1nc2ccc(Br)cc2o1 [Example 54, N-(6-Bromobenzo[d]oxazol-2-y1)-4-(2-methoxyphenyl)-6-methylnicotinamide]	15 to 50	–	–
COc1ccccc1-c1cc(C)ncc1C(=O)Nc1nn2cc(C3CC3)nc2s1 [Example 168, N-(6-cyclopropylimi-dazo[2,1-b][1,3,4]thiadiazol-2-yl)-4-(2-methoxyphenyl)-6-methylnicotinamide]	150 to 900	–	–
COc1cnc(Cl)cc1-c1cc(C)ncc1C(=O)Nc1nn2cc(C(=O)N[C@H]3CC[C@@H](O)CC3)nc2s1 [Example 292]	1 to 15	–	–
COc1cnc(Cl)cc1-c1cc(C)ncc1C(=O)Nc1nn2cc(C3CCCCC3)nc2s1 [Example 315]	1 to 15	–	–
COc1ccc(C#N)cc1-c1cc(C)ncc1C(=O)Nc1nn2cc(C(=O)N(C)C)nc2s1 [Example 316, 2-(4-(5-cyano-2-methoxyphenyl)-6-methylnicotinamido)-N,N-dimethylimidazo[2,1-b][1,3,4]thiadiazole-6-carboxamide]	15 to 50	–	–
COc1cnc(Cl)cc1-c1cc(C)ncc1C(=O)Nc1nc2ncc(C3(OC)CCOCC3)nc2s1 [Example 373, 2′-chloro-5′-methoxy-N-(6-(4-methoxytetrahydro-2H-pyran-4-yl)thiazolo[4,5-b]pyrazin-2-yl)-6-methyl-[4,4′-bipyridine]-3-carboxamide]	1 to 15	–	–
COc1cnc(Cl)cc1-c1cc(C)ncc1C(=O)Nc1nc2ncc(N3CCC(OC(F)(F)F)CC3)nc2s1 [Example 489, 2′-chloro-5′-methoxy-6-methyl-N-(6-(4-(trifluoromethoxy)piperidin-1-yl)thiazolo[4,5-b]pyrazin-2-yl)-[4,4′-bipyridine]-3-carboxamide]	–	> 10	0.001 to 0.1

Other lines, results leading:

IC50 [1] [nM]	IC50 [2] [µM]	IC50 [3] [µM]	SMILES
> 900	–	–	Cc1cc(N2CCC3(CNC(=O)C3)C2)c(C(=O)Nc2nc3ncc(-c4ccncc4)cc3s2)cn1 (racemic) [Example 201]
15 to 50	–	–	COc1ccccc1-c1cc(C)ncc1C(=O)Nc1nc2ncc(C3CCCCO3)cc2s1 (single isomer, unassigned) [Example 106, (S or R)-4-(2-methoxyphenyl)-6-methyl-N-(6-(tetrahydro-2H-pyran-2-yl)thiazolo[4,5-b]pyridin-2-yl)nicotinamide]
150 to 900	–	–	Cc1cc(N2CCC[C@H](C#N)C2)c(C(=O)Nc2nc3ncc(-c4ccncc4)cc3s2)cn1 (single isomer, unassigned) [Example 143]
15 to 50	–	–	COc1cnc(Cl)cc1-c1cc(C)ncc1C(=O)Nc1nc2ncc(N3CC[C@@](C)(OC)[C@@H](F)C3)nc2s1 (single isomer, unassigned) [Example 363, 2′-chloro-N-(6-((3S or R,4R or S)-3-fluoro-4-methoxy-4-methylpiperidin-1-yl)thiazolo[4,5-b]pyrazin-2-yl)-5′-methoxy-6-methyl-[4,4′-bipyridine]-3-carboxamide]
1 to 15	–	–	COc1ccc(C#N)cc1-c1cc(C)ncc1C(=O)Nc1nc2ncc(N3CCC(O)(C(F)F)CC3)nc2s1 (single isomer, unassigned) [Example 418, 4-(5-cyano-2-methoxyphenyl)-N-(6-(4-(difluoromethyl)-4-hydroxypiperidin-1-yl)thiazolo[4,5-b]pyrazin-2-yl)-6-methylnicotinamide]
1 to 15	–	–	COc1cnc(Cl)cc1-c1cc(C)ncc1C(=O)Nc1nc2ncc(C3CCOC3)cc2s1 (single isomer, unassigned) [Example 516, (S or R)-2′-chloro-5′-methoxy-6-methyl-N-(6-(tetrahydrofuran-3-yl)thiazolo[4,5-b]pyridin-2-yl)-[4,4′-bipyridine]-3-carboxamide]
15 to 50	–	–	COc1ccccc1-c1cc(C)ncc1C(=O)Nc1nc2ncc(C(F)(F)F)cc2s1 [Example 116]
15 to 50	–	–	COc1ccccc1-c1cc(C)ncc1C(=O)Nc1nc2nnc(Cl)cc2s1 [Example 117]
150 to 900	–	–	Cc1cc(C2=CCN(C(=O)OC(C)(C)C)CC2)c(C(=O)Nc2nc3ncc(-c4ccncc4)nc3s2)cn1 [Example 139]
150 to 900	–	–	Cc1cc(N2CCN(c3nccs3)CC2)c(C(=O)Nc2nc3ncc(-c4ccncc4)cc3s2)cn1 [Example 159, 6-methyl-N-(6-(pyridin-4-yl)thiazolo[4,5-b]pyridin-2-yl)-4-(4-(thiazol-2-yl)piperazin-1-yl)nicotinamide]
> 900	–	–	CC(=O)N1CC2(C1)CN(c1cc(C)ncc1C(=O)Nc1nc3ncc(-c4ccncc4)cc3s1)C2 [Example 202]
15 to 50	–	–	COc1cnc(Cl)cc1-c1cc(C)ncc1C(=O)Nc1nc2ncc(C3(O)CCOCC3)nc2s1 [Example 390, 2′-chloro-N-(6-(4-hydroxytetrahydro-2H-pyran-4-yl)thiazolo[4,5-b]pyrazin-2-yl)-5′-methoxy-6-methyl-[4,4′-bipyridine]-3-carboxamide]
–	> 10	0.1 to 0.25	COc1cnc(Cl)cc1-c1cc(C)ncc1C(=O)Nc1nc2ncc(N3CCOCC3)nc2s1 [Example 483, 2′-chloro-5′-methoxy-6-methyl-N-(6-morpholinothiazolo[4,5-b]pyrazin-2-yl)-[4,4′-bipyridine]-3-carboxamide]
–	> 10	0.1 to 0.25	COc1cnc(Cl)cc1-c1cc(C)ncc1C(=O)Nc1nc2ncc(N3CCC[C@@H](C)C3)nc2s1 [Example 485, (R)-2′-chloro-5′-methoxy-6-methyl-N-(6-(3-methylpiperidin-1-yl)thiazolo[4,5-b]pyrazin-2-yl)-[4,4′-bipyridine]-3-carboxamide]
–	> 10	0.001 to 0.1	COc1cnc(Cl)cc1-c1cc(C)ncc1C(=O)Nc1nc2ncc(N3CCC(C(F)F)CC3)nc2s1 [Example 486, 2′-chloro-N-(6-(4-(difluoromethyl)piperidin-1-yl)thiazolo[4,5-b]pyrazin-2-yl)-5′-methoxy-6-methyl-[4,4′-bipyridine]-3-carboxamide]
–	> 10	0.001 to 0.1	COc1cnc(Cl)cc1-c1cc(C)ncc1C(=O)Nc1nc2ncc(N3CCC3)nc2s1 [Example 487, N-(6-(azetidin-1-yl)thiazolo[4,5-b]pyrazin-2-yl)-2′-chloro-5′-methoxy-6-methyl-[4,4′-bipyridine]-3-carboxamide]
–	> 10	0.001 to 0.1	COc1cnc(Cl)cc1-c1cc(C)ncc1C(=O)Nc1nc2ncc(N3CCO[C@H](C)C3)nc2s1 [Example 488, (R)-2′-chloro-5′-methoxy-6-methyl-N-(6-(2-methylmorpholino)thiazolo[4,5-b]pyrazin-2-yl)-[4,4′-bipyridine]-3-carboxamide]
–	> 10	0.001 to 0.1	COc1cnc(Cl)cc1-c1cc(C)ncc1C(=O)Nc1nc2ncc(N3CCO[C@@H](C)C3)nc2s1 [Example 490, (S)-2′-chloro-5′-methoxy-6-methyl-N-(6-(2-methylmorpholino)thiazolo[4,5-b]pyrazin-2-yl)-[4,4′-bipyridine]-3-carboxamide]
–	> 10	0.001 to 0.1	COc1cnc(Cl)cc1-c1cc(C)ncc1C(=O)Nc1nc2ncc(N3CCCCC3)nc2s1 [Example 491, 2′-chloro-5′-methoxy-6-methyl-N-(6-(piperidin-1-yl)thiazolo[4,5-b]pyrazin-2-yl)-[4,4′-bipyridine]-3-carboxamide]
